{
  "source": "ChEMBL document CHEMBL4257227",
  "about": "“Deubiquitinase inhibitors and methods for use of the same” (2016)",
  "key": {"[1]": {"target": "Ubiquitin carboxyl-terminal hydrolase 9X (Homo sapiens) (UniProt Q93008)", "sequence (Q93008 whole entry)": "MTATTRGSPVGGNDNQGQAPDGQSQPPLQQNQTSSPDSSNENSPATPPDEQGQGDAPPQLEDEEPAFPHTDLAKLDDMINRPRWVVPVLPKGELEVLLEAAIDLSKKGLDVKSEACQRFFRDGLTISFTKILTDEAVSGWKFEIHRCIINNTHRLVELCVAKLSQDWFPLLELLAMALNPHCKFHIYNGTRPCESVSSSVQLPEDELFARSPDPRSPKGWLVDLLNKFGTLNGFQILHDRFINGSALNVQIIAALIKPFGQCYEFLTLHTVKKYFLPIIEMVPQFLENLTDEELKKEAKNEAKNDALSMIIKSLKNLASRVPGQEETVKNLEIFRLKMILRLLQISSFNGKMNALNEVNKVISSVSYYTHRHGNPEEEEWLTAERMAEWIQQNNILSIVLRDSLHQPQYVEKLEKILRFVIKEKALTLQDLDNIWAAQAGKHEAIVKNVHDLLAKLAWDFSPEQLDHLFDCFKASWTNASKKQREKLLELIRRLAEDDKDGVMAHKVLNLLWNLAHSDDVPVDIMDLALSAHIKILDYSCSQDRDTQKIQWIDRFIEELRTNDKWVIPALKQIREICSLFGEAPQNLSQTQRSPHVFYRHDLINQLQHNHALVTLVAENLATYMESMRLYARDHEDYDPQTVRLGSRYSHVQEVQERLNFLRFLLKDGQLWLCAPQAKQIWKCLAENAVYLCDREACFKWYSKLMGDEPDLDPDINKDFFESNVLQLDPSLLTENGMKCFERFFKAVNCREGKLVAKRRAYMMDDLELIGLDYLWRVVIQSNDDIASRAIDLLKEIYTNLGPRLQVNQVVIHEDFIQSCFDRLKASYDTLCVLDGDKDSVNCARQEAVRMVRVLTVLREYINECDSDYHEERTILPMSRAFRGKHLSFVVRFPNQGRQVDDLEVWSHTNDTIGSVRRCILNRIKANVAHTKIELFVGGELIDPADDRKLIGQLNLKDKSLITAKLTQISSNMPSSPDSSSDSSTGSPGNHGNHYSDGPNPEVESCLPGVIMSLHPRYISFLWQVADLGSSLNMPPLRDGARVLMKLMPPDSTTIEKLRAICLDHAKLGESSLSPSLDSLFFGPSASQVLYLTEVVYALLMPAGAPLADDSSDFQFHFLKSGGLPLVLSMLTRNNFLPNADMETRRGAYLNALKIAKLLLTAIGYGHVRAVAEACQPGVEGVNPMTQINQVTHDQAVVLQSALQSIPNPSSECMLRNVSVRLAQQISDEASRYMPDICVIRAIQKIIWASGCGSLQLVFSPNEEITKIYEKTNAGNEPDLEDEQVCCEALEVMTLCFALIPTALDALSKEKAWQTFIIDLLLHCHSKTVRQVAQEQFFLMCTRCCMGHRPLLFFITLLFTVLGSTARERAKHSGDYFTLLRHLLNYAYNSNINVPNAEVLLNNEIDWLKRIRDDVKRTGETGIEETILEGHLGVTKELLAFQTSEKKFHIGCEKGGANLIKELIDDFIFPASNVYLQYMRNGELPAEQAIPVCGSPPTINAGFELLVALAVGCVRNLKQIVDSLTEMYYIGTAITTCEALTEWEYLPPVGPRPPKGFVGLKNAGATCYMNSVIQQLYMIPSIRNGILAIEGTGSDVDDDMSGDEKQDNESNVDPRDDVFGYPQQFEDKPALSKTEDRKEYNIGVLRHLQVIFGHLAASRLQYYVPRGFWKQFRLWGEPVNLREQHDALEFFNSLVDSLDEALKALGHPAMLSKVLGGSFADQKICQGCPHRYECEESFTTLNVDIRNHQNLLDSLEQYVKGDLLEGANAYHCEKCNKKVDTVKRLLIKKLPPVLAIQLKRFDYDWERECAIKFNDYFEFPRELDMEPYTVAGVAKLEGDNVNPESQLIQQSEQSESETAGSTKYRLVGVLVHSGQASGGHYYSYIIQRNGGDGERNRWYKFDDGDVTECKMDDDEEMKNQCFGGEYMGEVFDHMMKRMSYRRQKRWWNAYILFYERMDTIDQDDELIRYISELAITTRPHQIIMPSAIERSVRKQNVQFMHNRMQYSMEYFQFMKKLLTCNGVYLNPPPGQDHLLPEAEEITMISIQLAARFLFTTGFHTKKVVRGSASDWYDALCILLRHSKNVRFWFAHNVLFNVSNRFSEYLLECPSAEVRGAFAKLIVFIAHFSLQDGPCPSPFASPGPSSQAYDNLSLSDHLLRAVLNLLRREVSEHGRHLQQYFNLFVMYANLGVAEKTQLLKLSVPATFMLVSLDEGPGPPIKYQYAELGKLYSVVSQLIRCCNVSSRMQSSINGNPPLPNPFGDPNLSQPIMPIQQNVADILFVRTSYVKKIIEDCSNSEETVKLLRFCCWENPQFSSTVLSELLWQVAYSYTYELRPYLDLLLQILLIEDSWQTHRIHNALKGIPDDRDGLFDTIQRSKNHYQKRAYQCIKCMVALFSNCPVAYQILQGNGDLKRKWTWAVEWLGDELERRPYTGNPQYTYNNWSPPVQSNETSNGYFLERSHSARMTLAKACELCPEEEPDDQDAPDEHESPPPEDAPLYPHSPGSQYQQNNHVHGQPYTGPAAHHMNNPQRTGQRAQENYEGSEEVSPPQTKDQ", "experiment": "Inhibition of Usp9x in human MM1.S cells assessed as reduction in MCL-1 protein levels at 5 uM incubated for 5 to 240 mins by SDS-PAGE and immunoblotting", "type": "cell-based"}, "[2]": {"target": "Ubiquitin carboxyl-terminal hydrolase 9X (Homo sapiens) (UniProt Q93008)", "experiment": "Inhibition of Usp9x in human A375 cells", "type": "cell-based"}, "Murine norovirus [3]": {"tested_on": "Murine norovirus", "experiment": "Antiviral activity against Murine norovirus infected in Swiss Webster bone marrow derived macrophages assessed as reduction in viral plaque forming units", "type": "functional, organism-based"}, "Mus musculus [4]": {"tested_on": "Mus musculus", "experiment": "Toxicity in human MM1S cells xenografted NOD/SCID/gamma-2 knockout mouse assessed effect on body weight at 15 to 20 mg/kg, ip once per day for 14 days", "type": "functional, organism-based"}, "A-375 [5]": {"tested_on": "A-375", "experiment": "Antitumor activity against human A375 cells xenografted in NOD/SCID/gamma-2 knockout mouse assessed as inhibition of tumor growth at 15 mg/kg, ip once per day for 8 days", "type": "functional, organism-based"}, "MM1.S": {"tested_on": "MM1.S", "experiment": "Induction of apoptosis in human MM1S cells at 0.3125 to 5 uM incubated for 24 hrs by annexin V staining based flow cytometry", "type": "functional, cell-based"}, "A375/R [6]": {"tested_on": "A375/R", "experiment": "Induction of apoptosis in human A375R cells assessed as induction of caspase-8 activation", "type": "functional, cell-based"}, "Mus musculus [7]": {"tested_on": "Mus musculus", "experiment": "Toxicity in human A375 cells xenografted NOD/SCID/gamma-2 knockout mouse assessed effect on body weight at 7.5 mg/kg, ip once per day for 8 days", "type": "functional, organism-based"}, "[8]": {"target": "Ubiquitin carboxyl-terminal hydrolase 9X (Homo sapiens) (UniProt Q93008)", "experiment": "Inhibition of USP9x in Vemurafenib sensitive human A375 cells assessed as STAT3 phosphorylation"}, "Mus musculus [9]": {"tested_on": "Mus musculus", "experiment": "Toxicity in human A375 cells xenografted NOD/SCID/gamma-2 knockout mouse assessed as effect on mobility at 7.5 to 15 mg/kg, ip once per day for 8 days", "type": "functional, organism-based"}, "[10]": {"target": "Ubiquitin carboxyl-terminal hydrolase 9X (Homo sapiens) (UniProt Q93008)", "experiment": "Inhibition of USP9x in Vemurafenib sensitive human A375 cells"}, "A-375 [11]": {"tested_on": "A-375", "experiment": "Induction of p53 protein expression in Vemurafenib resistant human A375 cells", "type": "functional, cell-based"}, "[12]": {"target": "Ubiquitin carboxyl-terminal hydrolase 9X (Homo sapiens) (UniProt Q93008)", "experiment": "Inhibition of Usp9x in human MM1.S cells assessed as reduction in caspase activity by measuring cleaved PARP protein levels at 5 uM incubated for 5 to 240 mins by SDS-PAGE and immunoblotting", "type": "cell-based"}, "Sindbis virus": {"tested_on": "Sindbis virus", "experiment": "Antiviral activity against Sindbis virus infected in African green monkey Vero cells assessed as reduction in viral plaque forming units", "type": "functional, organism-based"}, "Mus musculus [13]": {"tested_on": "Mus musculus", "experiment": "Toxicity in human A375 cells xenografted NOD/SCID/gamma-2 knockout mouse assessed as induction of body weight loss at 7.5 to 15 mg/kg, ip once per day for 8 days", "type": "functional, organism-based"}, "[14]": {"experiment": "Plasma concentration in Balb/c mouse at 10 mg/kg, iv after 2 hrs by LC-MS analysis", "type": "ADME, organism-based"}, "Murine norovirus [15]": {"tested_on": "Murine norovirus", "experiment": "Antiviral activity against Murine norovirus infected in Balb/c bone marrow derived macrophages assessed as reduction in viral plaque forming units", "type": "functional, organism-based"}, "[16]": {"experiment": "Plasma concentration in Balb/c mouse at 30 mg/kg, po after 4 hrs by LC-MS analysis", "type": "ADME, organism-based"}, "Tulane virus": {"tested_on": "Tulane virus", "experiment": "Antiviral activity against Tulane virus infected in […] LLC-MK cells assessed as reduction in viral plaque forming units", "type": "functional, organism-based"}, "Mus musculus [17]": {"tested_on": "Mus musculus", "experiment": "Toxicity in human MM1S cells xenografted NOD/SCID/gamma-2 knockout mouse assessed effect on body weight at 2.5 to 10 mg/kg, ip once per day for 14 days", "type": "functional, organism-based"}, "Mus musculus [18]": {"tested_on": "Mus musculus", "experiment": "Toxicity in human A375 cells xenografted NOD/SCID/gamma-2 knockout mouse assessed as effect on behaviour at 7.5 to 15 mg/kg, ip once per day for 8 days", "type": "functional, organism-based"}, "A375/R [19]": {"tested_on": "A375/R", "experiment": "Induction of apoptosis in human A375R cells assessed as induction of PARP cleavage", "type": "functional, cell-based"}, "Mus musculus [20]": {"tested_on": "Mus musculus", "experiment": "Inhibition of Usp9x in tumor of human MM1S cells xenografted in NOD/SCID/gamma-2 knockout mouse at 15 mg/kg, ip once per day for 14 days", "type": "organism-based", "conditions": "in vivo, 336 h"}, "[21]": {"experiment": "Plasma concentration in Balb/c mouse at 10 mg/kg, iv after 4 hrs by LC-MS analysis", "type": "ADME, organism-based"}, "A-375 [22]": {"tested_on": "A-375", "experiment": "Antitumor activity against human A375 cells xenografted in NOD/SCID/gamma-2 knockout mouse assessed as inhibition of tumor growth at 7.5 to 15 mg/kg, ip once per day for 8 days", "type": "functional, organism-based"}, "[23]": {"target": "T1, Ubiquitin carboxyl-terminal hydrolase 5 (Homo sapiens) (UniProt P45974)", "T1 sequence (whole entry)": "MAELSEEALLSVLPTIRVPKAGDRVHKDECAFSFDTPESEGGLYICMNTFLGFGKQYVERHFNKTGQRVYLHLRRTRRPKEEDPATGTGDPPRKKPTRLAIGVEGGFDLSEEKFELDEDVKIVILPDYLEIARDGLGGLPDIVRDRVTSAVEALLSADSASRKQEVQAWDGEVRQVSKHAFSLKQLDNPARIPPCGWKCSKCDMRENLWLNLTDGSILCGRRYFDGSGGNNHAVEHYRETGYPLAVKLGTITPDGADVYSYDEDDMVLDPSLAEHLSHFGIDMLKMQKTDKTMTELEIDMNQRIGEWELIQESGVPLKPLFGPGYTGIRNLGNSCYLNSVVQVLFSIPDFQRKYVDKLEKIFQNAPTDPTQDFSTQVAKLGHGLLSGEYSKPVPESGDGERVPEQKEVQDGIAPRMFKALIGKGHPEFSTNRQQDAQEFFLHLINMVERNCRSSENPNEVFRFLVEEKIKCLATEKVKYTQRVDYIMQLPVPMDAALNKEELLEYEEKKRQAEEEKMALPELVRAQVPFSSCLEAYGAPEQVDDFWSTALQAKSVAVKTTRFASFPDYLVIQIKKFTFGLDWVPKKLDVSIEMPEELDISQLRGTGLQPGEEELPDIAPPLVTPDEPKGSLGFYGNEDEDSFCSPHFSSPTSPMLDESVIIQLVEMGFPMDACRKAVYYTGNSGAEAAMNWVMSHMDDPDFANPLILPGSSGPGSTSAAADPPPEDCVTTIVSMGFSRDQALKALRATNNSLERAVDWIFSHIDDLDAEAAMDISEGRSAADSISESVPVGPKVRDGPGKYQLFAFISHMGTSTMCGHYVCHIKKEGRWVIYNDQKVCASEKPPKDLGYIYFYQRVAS", "experiment": "Inhibition of USP5 in Vemurafenib sensitive human A375 cells assessed as reduction in ERK phosphorylation"}, "[24]": {"target": "T1, Ubiquitin carboxyl-terminal hydrolase 5 (Homo sapiens)", "experiment": "Inhibition of USP5 in Vemurafenib […] human A375R cells assessed as increase in NOXA protein level"}, "[25]": {"tested_on": "CD34-positive blood stem/progenitor cell", "experiment": "Induction of apoptosis in human CD34+ cells at 0.3125 to 5 uM incubated for 24 hrs by annexin V staining based flow cytometry", "conditions": "cd34-positive (myeloid/lymphoid) cell"}, "[26]": {"experiment": "AUClast in Balb/c mouse at 30 mg/kg, po by LC-MS analysis", "type": "ADME, organism-based", "set-up": "dose 30 mg/kg, route oral, time 0 - last", "conditions": "in vivo"}, "A-375 [27]": {"tested_on": "A-375", "experiment": "Antitumor activity against human A375 cells xenografted in NOD/SCID/gamma-2 knockout mouse assessed as inhibition of tumor growth at 7.5 to 15 mg/kg, ip once per day for 8 days followed by drug cessation and measured 10 days after drug cessation", "type": "functional, organism-based"}, "[28]": {"experiment": "Plasma concentration in Balb/c mouse at 30 mg/kg, po after 2 hrs by LC-MS analysis", "type": "ADME, organism-based"}, "A375/R [29]": {"tested_on": "A375/R", "experiment": "Induction of apoptosis in human A375R cells assessed as induction of Bid cleavage", "type": "functional, cell-based"}},
  "note": "Activity calls are given as the source filed them. No cut-off for these calls is given here.",
  "data": [
    {"smiles": "CCCC(NC(=O)/C(C#N)=C/c1nc(Cl)ccc1Cl)c1ccc(OCCN2CCOCC2)cc1", "note": "(configuration not stated)", "values": [
      {"measurement": "inhibition", "setting": "[1]", "value": "Active"},
      {"measurement": "inhibition", "setting": "[2]", "value": "Active"},
      {"measurement": "Activity", "setting": "Murine norovirus [3]", "value": "Active"},
      {"measurement": "Activity", "setting": "Mus musculus [4]", "value": "Toxic"},
      {"measurement": "TGI", "setting": "A-375 [5]", "value": "Active"},
      {"measurement": "Activity", "setting": "MM1.S", "value": "Active"},
      {"measurement": "Activity", "setting": "A375/R [6]", "value": "Active"},
      {"measurement": "Activity", "setting": "Mus musculus [7]", "value": "Not toxic"},
      {"measurement": "inhibition", "setting": "[8]", "value": "Active"},
      {"measurement": "Activity", "setting": "Mus musculus [9]", "value": "Not toxic"},
      {"measurement": "inhibition", "setting": "[10]", "value": "Active"},
      {"measurement": "Activity", "setting": "A-375 [11]", "value": "inactive"},
      {"measurement": "inhibition", "setting": "[12]", "value": "Active"},
      {"measurement": "Activity", "setting": "Sindbis virus", "value": "Active"},
      {"measurement": "Activity", "setting": "Mus musculus [13]", "value": "Not toxic"},
      {"measurement": "concentration at 2 h", "setting": "[14]", "value": "395 to 520", "unit": "ng/mL"},
      {"measurement": "Activity", "setting": "Murine norovirus [15]", "value": "Active"},
      {"measurement": "concentration at 4 h", "setting": "[16]", "value": "44.5 to 57.1", "unit": "ng/mL"},
      {"measurement": "Activity", "setting": "Tulane virus", "value": "Active"},
      {"measurement": "Activity", "setting": "Mus musculus [17]", "value": "Not toxic"},
      {"measurement": "Activity", "setting": "Mus musculus [18]", "value": "Not toxic"},
      {"measurement": "Activity", "setting": "A375/R [19]", "value": "Active"},
      {"measurement": "inhibition (INH)", "setting": "Mus musculus [20]", "value": "Active"},
      {"measurement": "concentration at 4 h", "setting": "[21]", "value": "126 to 289", "unit": "ng/mL"},
      {"measurement": "TGI", "setting": "A-375 [22]", "value": "Active"},
      {"measurement": "inhibition", "setting": "[23]", "value": "Active"},
      {"measurement": "inhibition", "setting": "[24]", "value": "Active"},
      {"measurement": "Activity", "setting": "[25]", "value": "Non-Toxic"},
      {"measurement": "AUC(0-t)", "setting": "[26]", "value": "291 to 349", "unit": "ng·h/mL"},
      {"measurement": "TGI", "setting": "A-375 [27]", "value": "inactive"},
      {"measurement": "concentration at 2 h", "setting": "[28]", "value": "35.8 to 59", "unit": "ng/mL"},
      {"measurement": "Activity", "setting": "A375/R [29]", "value": "Active"}
    ]}
  ]
}
